Common to all, as to assay type: cell-based
Assay [1] deals with small cell lung cancer cell line H69. Description: MTT proliferation, small cell lung cancer cell line H69. The settings on record: MTT, 72 hours, H69; read-out: IC50 (μM) of compounds in small cell lung cancer cells, H69. On the procedure: (§1) The method for determining inhibitory activities of the compounds on the proliferation of tumor cells by an MTT method is as follows: a bottle of cells in a good state in an exponential growth phase is added with 0.25% trypsin digestive juice, the digestion makes adherent cells fall off, with 2 to 4×10^4 cells/mL, and a cell suspension is prepared. The cell suspension is inoculated on a 96-well plate, with 90 μL/well, and cultured in a constant-temperature CO2 incubator for 24 hours. The prepared compounds are added for testing, with 10 μL/well, and cultured for 72 hours. An MTT reagent is added into a 96-well plate, with 10 μL/well, and reacts in an incubator for 4 hours to absorb a supernatant, and then dimethyl sulfoxide is added, with 100 μL/well. After a crystal is dissolved, an absorbance of each well at a wavelength of 570 nm is measured by an enzyme-linked immunosorbent assay instrument, and a cell inhibition rate is calculated. An S curve is made with a compound concentration and a corresponding inhibition rate. Therefore, IC50 of a corresponding compound is obtained.
(§2) Anti-tumor dose-effect relationship curves of cordycepin and compounds 1, 2, 4, 5, 7, 8, 10, 12, 16, 18, 21, 23, 24, 35 and 38 in small cell lung cancer cell lines H1048, H446 and H69 were analyzed by an MTT experimental method.

Assay [2] has as its system small cell lung cancer cell line H1048. Description: MTT proliferation, small cell lung cancer cell line H1048. The conditions noted are these: MTT, 72 hours, H1048, read-out: IC50 (μM) of compounds in small cell lung cancer cells, H1048. On the procedure:
as §1, §2

Assay [3] deals with small cell lung cancer cell line H446. Description: MTT proliferation, small cell lung cancer cell line H446. The settings on record: MTT; for IC50: 72 hours, H446, read-out: IC50 (μM) of compounds in small cell lung cancer cells, H446. On the procedure:
as §1, §2

For assay [4], the system named is gastric cancer cell line BGC-823. Description: MTT proliferation, gastric cancer cell line BGC-823. The conditions noted are these: MTT, 72 hours, BGC-823, read-out: IC50 (μM) in gastric cancer cells, BGC-823. On the procedure:
as §1
(§3) Anti-tumor dose-effect relationship curves of the cordycepin and 40 compounds prepared in gastric cancer cell lines AGS and BGC-823 were analyzed by an MTT experimental method.

In assay [5] the test system is gastric cancer cell line AGS. Briefly: MTT proliferation, gastric cancer cell line AGS. The settings on record: MTT, 72 hours, AGS; read-out: IC50 (μM) in gastric cancer cells, AGS. On the procedure:
as §1, §3

Where a name gives a salt, the structure may show the parent alone. Read-outs that look alike come from different tables or passages of the source.

In general, IC50 refers to the point on the concentration scale where inhibition reaches its midpoint. With `CC(C)(C)C(=O)OCOP(=O)(COC[C@@H]1CC(O)[C@H](n2cnc3c(NC(=O)c4ccncc4)ncnc32)O1)OCOC(=O)C(C)(C)C` (stereo partly shown) [Compound 23], the IC50 in assay [1] stood at 20.2 µM; in assay [2] (Homo sapiens, NCI-H1048, 72 h) it was 17.4 µM; in assay [3] (Homo sapiens, NCI-H446, 72 h), 16.4 µM; in assay [4] (Homo sapiens) it was 1.31 µM; in assay [5] it was 0.89 µM.
With “isopropyl((((3-azide-4-hydroxy-5-(6-(isoniazid)-9H-purin-9-yl)tetrahydrofuran-2-yl)methoxy)methyl)(phenoxy)phosphoryl)alanine ester [Compound 28]”, the IC50 in assay [4] amounted to 5.42 µM; in assay [5], 3.47 µM.
Regarding `Nc1ncnc2c1ncn2[C@@H]1O[C@H](COCCO)CC1O` (stereo partly shown) [Compound 1], the half-maximal inhibitory concentration (IC50) was determined as 20.6 µM in assay [1]; 27.4 µM in assay [2]; 23.8 µM in assay [3]; 64.4 µM in assay [4]; 81.7 µM in assay [5].
As for `CC(C)[C@H](N)C(=O)OCC(CO)OCC1CC(O)C(n2cnc3c(N)ncnc32)O1` (stereo partly shown) [Compound 8, 2-(-5-(6-amino-9H-purin-9-yl)-4-hydroxytetrahydrofuran-2-yl)methoxy)-3-hydroxypropyl valine salt], the concentration for half-maximal inhibition (IC50) in assay [1] was found to be 14.8 µM; in assay [2] it was 14.5 µM; in assay [3], 10.5 µM; in assay [4], 18.8 µM; in assay [5], 27.8 µM.
Consider `Nc1ncnc2c1ncn2C1OC(COC2CC(CO)C(O)C2O)CC1O` (stereo not shown) [Compound 40, 3-((5-(6-amino-9H-purin-9-yl)-4-hydroxytetrahydrofuran-2-yl)methoxy)-5-(hydroxymethyl)cyclopentane-1,2-diol], for which the IC50 amounted to 189 µM in assay [4] (Homo sapiens) and 164 µM in assay [5].
Regarding `Nc1ncnc2c1ncn2[C@@H]1O[C@H](COP(=O)(O)O)[C@H](F)C1O` (stereo partly shown) [Compound 15, (5-(6-amino-9H-purine-9-yl)-3-fluoro-4-hydroxytetrahydrofuran-2-yl)dihydromethyl phosphate], the IC50 in assay [4] (Homo sapiens) stood at 20.7 µM; in assay [5], 18.4 µM.
For `CC(C)C(N)C(=O)OC1C[C@@H](COP(=O)(O)O)O[C@H]1n1cnc2c(NC(=O)c3ccncc3)ncnc21` (stereo partly shown) [Compound 31, 2-(6-(isonicotinamide)-9H-purin-9-yl)-5-(phosphonyl)methyl)tetrahydrofuran-3-yl valine salt], in that order: 33.6 µM and 41.2 µM.
As for `CC(C)C(N)C(=O)OC1C[C@@H](COP(=O)(O)O)O[C@H]1n1cnc2c(N)ncnc21` (stereo partly shown) [Compound 30, 2-(6-amino-9H-purin-9-yl)-5-(phosphonoxy)methyl)tetrahydrofuran-3-yl valine salt], the figures for the IC50 in assay [4] (Homo sapiens) and in assay [5] were 64.2 µM and 75.4 µM, respectively.
Regarding `O=C(Nc1ncnc2c1ncn2[C@@H]1O[C@H](CO)CC1O)c1ccncc1` (stereo partly shown) [Compound 12], the IC50 in assay [1] was determined as 19.5 µM; in assay [2] (Homo sapiens, NCI-H1048, 72 h), 22.2 µM; in assay [3] (Homo sapiens, NCI-H446, 72 h), 18.1 µM; in assay [4] (Homo sapiens) it was 1.34 µM; in assay [5], 1.23 µM.
Take `Nc1ncnc2c1ncn2[C@@H]1O[C@H](COCP(=O)(O)O)CC1O` (stereo partly shown) [Compound 3]: the IC50 came to 61.4 µM in assay [4] (Homo sapiens) and 86.7 µM in assay [5].
For `Nc1nc(S)nc2c1ncn2[C@@H]1O[C@H](COP(=O)(O)O)CC1O` (stereo partly shown) [Compound 14, (5-(6-amino-2-mercapto-9H-purine-9-yl)-4-hydroxytetrahydrofuran-2-yl)dihydromethyl phosphate], in that order: 18.6 µM and 12.9 µM.
On to `CC(C)COP(=O)(OCC(C)C)OC[C@@H]1CC(O)[C@H](n2cnc3c(N)ncnc32)O1` (stereo partly shown) [Compound 4, (5-(6-amino-9H-purine-9-yl)-4-hydroxytetrahydrofuran-2-yl)diisobutyl methylphosphate], for which the IC50 in assay [1] amounted to 43.2 µM; in assay [2] (Homo sapiens, NCI-H1048, 72 h), 42.1 µM; in assay [3] (Homo sapiens, NCI-H446, 72 h), 54.3 µM; in assay [4] (Homo sapiens), 86.2 µM; in assay [5], 64.3 µM.
Consider `CC(C)(C)C(=O)OCOP(=O)(COC[C@H]1O[C@@H](n2cnc3c(N)ncnc32)C(O)[C@H]1N=[N+]=[N-])OCOC(=O)C(C)(C)C` (stereo partly shown) [Compound 26, (((((5-(6-amino-9H-purine-9-yl)-3-azide-4-hydroxytetrahydrofuran-2-yl)methoxy)methyl)phosphoryl)bis(oxy))bis(methylene)bis(2,2-dimethylpropionic acid)], for which the IC50 stood at 46.6 µM in assay [4] (Homo sapiens) and 57.4 µM in assay [5].
Turning to “N-(3-hydroxy-5-(hydroxymethyl)tetrahydrofuran-2-yl)-9H-purine-6-yl)octadecylamine [Compound 10]”, the IC50 in assay [1] came out at 9.48 µM; in assay [2] it was 10.4 µM; in assay [3], 12.1 µM; in assay [4], 82.4 µM; in assay [5] it was 136 µM.
On to `COC(=O)C(C)NP(=O)(Oc1ccccc1)OC1C[C@@H](CO)O[C@H]1n1cnc2c(N)ncnc21` (stereo partly shown) [Compound 33, methyl(((2-(6-amino-9H-purin-9-yl)-5-(hydroxymethyl)tetrahydrofuran-3-yl)oxy)(phenoxy)phosphoryl)alanine salt], for which the IC50 in assay [4] came to 29.5 µM; in assay [5], 36.5 µM.
On to `CC(C)C(N)C(=O)OC1C[C@@H](CO)O[C@H]1n1cnc2c(N)ncnc21` (stereo partly shown) [Compound 29, 2-(6-amino-9H-purin-9-yl)-5-(hydroxymethyl)tetrahydrofuran-3-yl valine salt], for which the half-inhibitory concentration (IC50) worked out at 41.4 µM in assay [4] (Homo sapiens) and 32.5 µM in assay [5].
For the molecule “N-(4-chloro-3-hydroxy-5-(hydroxymethyl)tetrahydrofuran-2-yl)-9H-purine-6-yl)octadecylamine [Compound 22]”, the IC50 in assay [4] was determined as 53.7 µM; in assay [5], 45 µM.
As for “N-(2-fluoro-3-hydroxy-5-(hydroxymethyl)tetrahydrofuran-2-yl)-9H-purine-6-yl)octadecylamine [Compound 21]”, the IC50 was 2.95 µM in assay [1]; 6.38 µM in assay [2]; 4.58 µM in assay [3]; 4.38 µM in assay [4]; 2.46 µM in assay [5].
Regarding `CC(C)(C)C(=O)OCOP(=O)(COC[C@@H]1CC(O)[C@H](n2cnc3c(N)nc(F)nc32)O1)OCOC(=O)C(C)(C)C` (stereo partly shown) [Compound 17], the IC50 in assay [4] (Homo sapiens) was 2.39 µM; in assay [5], 1.32 µM.
Regarding `Nc1nc(/C=C/Br)nc2c1ncn2[C@@H]1O[C@H](COP(=O)(O)O)CC1O` (stereo partly shown) [Compound 38, (5-(6-amino-2-((E)-2-bromocarbonyl)-9H-purine-9-yl)-4-hydroxytetrahydrofuran-2-yl)dihydromethyl phosphate], the IC50 in assay [1] is 1.25 µM; in assay [2] (Homo sapiens, NCI-H1048, 72 h) it was 1.37 µM; in assay [3] (Homo sapiens, NCI-H446, 72 h) it was 0.97 µM; in assay [4] (Homo sapiens), 104 µM; in assay [5], 134 µM. The “killing effect on the three lines of cells in vitro” value in assay [3] (stated in words for all three lines H1048, H446 and H69) is “strong killing effect”.
On to `CCCCCOC1CC(COCP(=O)(O)O)OC1n1cnc2c(NC(=O)c3ccncc3)ncnc21` (stereo not shown) [Compound 32, (((5-(6-(isonicotinamide)-9H-purine-9-yl)-4-(pentoxy)tetrahydrofuran-2-yl)methoxy)methyl)phosphonic acid], for which the half-maximal inhibitory concentration (IC50) worked out at 19.8 µM in assay [4] and 23 µM in assay [5].
